The values that follow come from patent US20220244245A1, “A METHOD OF PROFILING THE ENERGETIC METABOLISM OF A POPULATION OF CELLS” (INSERM (Institut National de la Santé et de la Recherche …, priority 2019, published 2022).

In one assay the test system is Flt3L-bmDC. Briefly: ZENITH: protein synthesis (puromycin incorporation, flow cytometry) in Flt3L-bmDC subsets, WT and PERK KO. It is filed as cell-based, mouse. Particulars: short 2-DG treatment; DC subsets from WT PERKflox/flox and CD11c-CRE PERKflox/flox (PERK KO). The protocol:
Mouse splenocytes from WT C57BL/6J (Jackson) or PERK KO C57BL/6J background mice (Zhang et al., 2002) were cultured in DMEM containing 5% of Fetal Calf Serum (FCS) and 50 μM of 2-Mercaptoethanol (Mouse cells culture media, MCCM) at 37° C. 5% of CO2 GM-CSF BM-derived dendritic cells (GM-bmDCs) were differentiated in vitro from the bone marrow of 6-8-week-old male mice, using GM-CSF, produced by J558L cells. Bone marrow progenitors were plated at 0.8×10^6 cells/ml, 5 ml/well in 6-well plates, and cultivated with RPMI (GIBCO), 5% FCS (Sigma-Aldrich), 20 μg/ml gentamycin (Sigma-Aldrich), 50 μM β-mercaptoethanol (VWR), and GM-CSF. The medium was replaced every 2 days; BM-derived DCs were used for experiments at day 6. Similarly, FLT3L BM-derived dendritic cells (FLT3L-bmDCs) were differentiated by adding FLT3L to RPMI, 10% of Fetal Calf Serum (FCS) and 50 μM of 2-Mercaptoethanol (Mouse cells culture media, MCCM) during 6 days at 37° C. 5% of CO2. To obtain splenocytes, eight weeks old wild type C57BL/6J mice were sacrificed by cervical dislocation and splenectomized. Single cells suspentions from the spleens were generated and cultured in MCCM as previously described. […]
Flow cytometry was conducted using BD LSR II and BD LSR Fortessa X-20 machine (BD Biosciences™) and data were analyzed with FlowJo (Tree Star™) and/or Cytobank. […]

A further assay deals with MEFs. Put plainly: ATP measurement (Cell titer-Glo luminescence) in MEFs. It is filed as cell-based, mouse. The protocol: 20×104 MEFs were seeded in 100 µl of 5% FCS DMEM culture media ON in opaque 96 well plates. After, 100 ul of Cell titer-Glo luminiscence ATP reconstituted buffer and substrate (Promega, Cat. No. G7570) was added to each well and Luminiscence was measured after 10 minutes following manufacturer instructions. A standard curve with ATP was performed using the same kit and following manufacturer instructions.
For orientation: Cellular ATP, detected with luciferase, serves as a proxy for viable cell number.

Consider `O=CC[C@@H](O)[C@H](O)[C@H](O)CO` [2-DG, 2-Deoxy-D-Glucose], for which the “protein synthesis in response to 2-DG” value in the assay with Flt3L-bmDC is “decrease protein synthesis”.
In the case of `C[C@@H]1C[C@@H]([C@H](O)CC2CC(=O)NC(=O)C2)C(=O)[C@@H](C)C1` [CHX, Cycloheximide], the “pool of ATP” value in the assay with MEFs (MEFs, added on top of Oligo+2-DG, 5 minutes of treatment, compared to Oligo+2-DG treatment (Co), FIG. 2A) is listed as “significantly higher”.
With `CC[C@H]1/C=C/C=C/C[C@@H](C)[C@H](O)[C@@](C)(O)C(=O)[C@@H](C)[C@H](O)[C@@H](C)C(=O)[C@@H](C)[C@H](O)[C@@H](C)/C=C/C(=O)O[C@@H]2[C@H](C)[C@H](CC1)O[C@]1(CC[C@H](C)[C@H](C[C@@H](C)O)O1)[C@H]2C` [Oligomycin], in the assay with MEFs (MEFs treated 20-30 minutes with the metabolic inhibitor, FIGS. 3A and 3B), the “levels of ATP” value is “unchanged”.
